Tests used:
[1] = tested on: SN12C; assay: NCI-60 single-dose screen; type: cell-based; conditions: Homo sapiens, single dose 10 µM, '-' = no inhibition, read-out: % Growth Inhibition
Procedure, shortened: (§1)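 NCI DTP single-dose screen; 10 μM compound; 60-line panel, nine cancer types.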

[2] = tested on: NCI-H23; assay: NCI-60 single-dose screen; type: cell-based; conditions: Homo sapiens, single dose 10 µM, '-' = no inhibition, read-out: % Growth Inhibition
Procedure, shortened: as §1

[3] = tested on: UACC-257; assay: NCI-60 single-dose screen; type: cell-based; conditions: Homo sapiens, single dose 10 µM, '-' = no inhibition, read-out: % Growth Inhibition
Procedure, shortened: as §1

[4] = tested on: UACC-62; assay: NCI-60 single-dose screen; type: cell-based; conditions: Homo sapiens, single dose 10 µM, '-' = no inhibition, read-out: % Growth Inhibition
Procedure, shortened: as §1

[5] = tested on: MDA-MB-435; assay: NCI-60 single-dose screen; type: cell-based; conditions: Homo sapiens, single dose 10 µM, '-' = no inhibition, read-out: % Growth Inhibition
Procedure, shortened: as §1

[6] = tested on: ACHN 1; assay: NCI-60 single-dose screen; type: cell-based; conditions: Homo sapiens, single dose 10 µM, '-' = no inhibition, read-out: % Growth Inhibition
Procedure, shortened: as §1

[7] = tested on: MDA-MB-468; assay: NCI-60 single-dose screen; type: cell-based; conditions: Homo sapiens, single dose 10 µM, '-' = no inhibition, read-out: % Growth Inhibition
Procedure, shortened: as §1

[8] = tested on: PC-3; assay: NCI-60 single-dose screen; type: cell-based; conditions: Homo sapiens, single dose 10 µM, '-' = no inhibition, read-out: % Growth Inhibition
Procedure, shortened: as §1

[9] = tested on: RXF 393; assay: NCI-60 single-dose screen; type: cell-based; conditions: Homo sapiens, single dose 10 µM, '-' = no inhibition, read-out: % Growth Inhibition
Procedure, shortened: as §1

[10] = tested on: MOLT-4; assay: NCI-60 single-dose screen; type: cell-based; conditions: Homo sapiens, single dose 10 µM, '-' = no inhibition, read-out: % Growth Inhibition
Procedure, shortened: as §1

[11] = tested on: SF-539; assay: NCI-60 single-dose screen; type: cell-based; conditions: Homo sapiens, single dose 10 µM, '-' = no inhibition, read-out: % Growth Inhibition
Procedure, shortened: as §1

[12] = tested on: RPMI-8226; assay: NCI-60 single-dose screen; type: cell-based; conditions: Homo sapiens, single dose 10 µM, '-' = no inhibition, read-out: % Growth Inhibition
Procedure, shortened: as §1

[13] = tested on: OVCAR-8; assay: NCI-60 single-dose screen; type: cell-based; conditions: Homo sapiens, single dose 10 µM, '-' = no inhibition, read-out: % Growth Inhibition
Procedure, shortened: as §1

[14] = tested on: KM12; assay: NCI-60 single-dose screen; type: cell-based; conditions: Homo sapiens, single dose 10 µM, '-' = no inhibition, read-out: % Growth Inhibition
Procedure, shortened: as §1

[15] = tested on: HT29; assay: NCI-60 single-dose screen; type: cell-based; conditions: Homo sapiens, HT-29, single dose 10 µM, '-' = no inhibition, read-out: % Growth Inhibition
Procedure, shortened: as §1

[16] = tested on: SW-620; assay: NCI-60 single-dose screen; type: cell-based; conditions: Homo sapiens, single dose 10 µM, '-' = no inhibition, read-out: % Growth Inhibition
Procedure, shortened: as §1

[17] = tested on: BT-549; assay: NCI-60 single-dose screen; type: cell-based; conditions: Homo sapiens, single dose 10 µM, '-' = no inhibition, read-out: % Growth Inhibition
Procedure, shortened: as §1

[18] = tested on: SNB-19; assay: NCI-60 single-dose screen; type: cell-based; conditions: Homo sapiens, single dose 10 µM, '-' = no inhibition, read-out: % Growth Inhibition
Procedure, shortened: as §1

[19] = tested on: DU-145; assay: NCI-60 single-dose screen; type: cell-based; conditions: Homo sapiens, single dose 10 µM, '-' = no inhibition, read-out: % Growth Inhibition
Procedure, shortened: as §1

[20] = tested on: NCI-H460; assay: NCI-60 single-dose screen; type: cell-based; conditions: Homo sapiens, single dose 10 µM, '-' = no inhibition, read-out: % Growth Inhibition
Procedure, shortened: as §1

[21] = tested on: NCI-H322M; assay: NCI-60 single-dose screen; type: cell-based; conditions: Homo sapiens, single dose 10 µM, '-' = no inhibition, read-out: % Growth Inhibition
Procedure, shortened: as §1

[22] = tested on: NCI/ADR-RES; assay: NCI-60 single-dose screen; type: cell-based; conditions: Homo sapiens, single dose 10 µM, '-' = no inhibition, read-out: % Growth Inhibition
Procedure, shortened: as §1

[23] = tested on: CCRF-CEM; assay: NCI-60 single-dose screen; type: cell-based; conditions: Homo sapiens, single dose 10 µM, '-' = no inhibition, read-out: % Growth Inhibition
Procedure, shortened: as §1

[24] = tested on: SK-MEL-28; assay: NCI-60 single-dose screen; type: cell-based; conditions: Homo sapiens, single dose 10 µM, '-' = no inhibition, read-out: % Growth Inhibition
Procedure, shortened: as §1

[25] = tested on: OVCAR-3; assay: NCI-60 single-dose screen; type: cell-based; conditions: Homo sapiens, single dose 10 µM, '-' = no inhibition, read-out: % Growth Inhibition
Procedure, shortened: as §1

[26] = tested on: MCF7; assay: NCI-60 single-dose screen; type: cell-based; conditions: Homo sapiens, single dose 10 µM, '-' = no inhibition, read-out: % Growth Inhibition
Procedure, shortened: as §1

[27] = tested on: TK-10; assay: NCI-60 single-dose screen; type: cell-based; conditions: Homo sapiens, single dose 10 µM, '-' = no inhibition, read-out: % Growth Inhibition
Procedure, shortened: as §1

[28] = tested on: M14; assay: NCI-60 single-dose screen; type: cell-based; conditions: Homo sapiens, single dose 10 µM, '-' = no inhibition, read-out: % Growth Inhibition
Procedure, shortened: as §1

[29] = tested on: HCT-15; assay: NCI-60 single-dose screen; type: cell-based; conditions: Homo sapiens, single dose 10 µM, '-' = no inhibition, read-out: % Growth Inhibition
Procedure, shortened: as §1

[30] = tested on: SF-295; assay: NCI-60 single-dose screen; type: cell-based; conditions: Homo sapiens, single dose 10 µM, '-' = no inhibition, read-out: % Growth Inhibition
Procedure, shortened: as §1

[31] = tested on: SR; assay: NCI-60 single-dose screen; type: cell-based; conditions: Homo sapiens, single dose 10 µM, '-' = no inhibition, read-out: % Growth Inhibition
Procedure, shortened: as §1

[32] = tested on: EKVX; assay: NCI-60 single-dose screen; type: cell-based; conditions: Homo sapiens, single dose 10 µM, '-' = no inhibition, read-out: % Growth Inhibition
Procedure, shortened: as §1

[33] = tested on: IGROV1; assay: NCI-60 single-dose screen; type: cell-based; conditions: Homo sapiens, IGROV-1, single dose 10 µM, '-' = no inhibition, read-out: % Growth Inhibition
Procedure, shortened: as §1

[34] = tested on: HCC-2998; assay: NCI-60 single-dose screen; type: cell-based; conditions: Homo sapiens, single dose 10 µM, '-' = no inhibition, read-out: % Growth Inhibition
Procedure, shortened: as §1

[35] = tested on: MALME-3M; assay: NCI-60 single-dose screen; type: cell-based; conditions: Homo sapiens, single dose 10 µM, '-' = no inhibition, read-out: % Growth Inhibition
Procedure, shortened: as §1

[36] = tested on: NCI-H522; assay: NCI-60 single-dose screen; type: cell-based; conditions: Homo sapiens, single dose 10 µM, '-' = no inhibition, read-out: % Growth Inhibition
Procedure, shortened: as §1

[37] = tested on: MDA-MB231/ATCC; assay: NCI-60 single-dose screen; type: cell-based; conditions: Homo sapiens, MDA-MB-231, single dose 10 µM, '-' = no inhibition, read-out: % Growth Inhibition
Procedure, shortened: as §1

[38] = tested on: CAKI-1; assay: NCI-60 single-dose screen; type: cell-based; conditions: Homo sapiens, single dose 10 µM, '-' = no inhibition, read-out: % Growth Inhibition
Procedure, shortened: as §1

[39] = tested on: UO-31; assay: NCI-60 single-dose screen; type: cell-based; conditions: Homo sapiens, single dose 10 µM, '-' = no inhibition, read-out: % Growth Inhibition
Procedure, shortened: as §1

[40] = tested on: SNB-75; assay: NCI-60 single-dose screen; type: cell-based; conditions: Homo sapiens, single dose 10 µM, '-' = no inhibition, read-out: % Growth Inhibition
Procedure, shortened: as §1

[41] = tested on: K-562; assay: NCI-60 single-dose screen; type: cell-based; conditions: Homo sapiens, K562, single dose 10 µM, '-' = no inhibition, read-out: % Growth Inhibition
Procedure, shortened: as §1

[42] = tested on: SK-MEL-2; assay: NCI-60 single-dose screen; type: cell-based; conditions: Homo sapiens, single dose 10 µM, '-' = no inhibition, read-out: % Growth Inhibition
Procedure, shortened: as §1

[43] = tested on: SF-268; assay: NCI-60 single-dose screen; type: cell-based; conditions: Homo sapiens, single dose 10 µM, '-' = no inhibition, read-out: % Growth Inhibition
Procedure, shortened: as §1

[44] = tested on: A498; assay: NCI-60 single-dose screen; type: cell-based; conditions: Homo sapiens, single dose 10 µM, '-' = no inhibition, read-out: % Growth Inhibition
Procedure, shortened: as §1

[45] = tested on: SK-OV-3; assay: NCI-60 single-dose screen; type: cell-based; conditions: Homo sapiens, single dose 10 µM, '-' = no inhibition, read-out: % Growth Inhibition
Procedure, shortened: as §1

[46] = tested on: LOX IMVI; assay: NCI-60 single-dose screen; type: cell-based; conditions: Homo sapiens, single dose 10 µM, '-' = no inhibition, read-out: % Growth Inhibition
Procedure, shortened: as §1

[47] = tested on: HL-60(TB); assay: NCI-60 single-dose screen; type: cell-based; conditions: Homo sapiens, single dose 10 µM, '-' = no inhibition, read-out: % Growth Inhibition

CCCSc1nc(-c2ccc(Cl)cc2)cc(-c2ccc(OC)cc2)n1 [Compound 11, 4-(4-Chlorophenyl)-6-(4-methoxyphenyl)-2-(propylthio)pyrimidine]
inhibition at 10 µM [1]: 6.25% | inhibition at 10 µM [2]: < 0% | inhibition at 10 µM [3]: < 0% | inhibition at 10 µM [4]: 18.1% | inhibition at 10 µM [5]: 1.63% | inhibition at 10 µM [6]: < 0% | inhibition at 10 µM [7]: 7.92% | inhibition at 10 µM [8]: < 0% | inhibition at 10 µM [9]: < 0% | inhibition at 10 µM [10]: 2.06% | inhibition at 10 µM [11]: < 0% | inhibition at 10 µM [12]: < 0% | inhibition at 10 µM [13]: 2.49% | inhibition at 10 µM [14]: 1.24% | inhibition at 10 µM [15]: 10.7% | inhibition at 10 µM [16]: 0.11% | inhibition at 10 µM [17]: < 0% | inhibition at 10 µM [18]: 1.03% | inhibition at 10 µM [19]: 0.44% | inhibition at 10 µM [20]: < 0% | inhibition at 10 µM [21]: < 0% | inhibition at 10 µM [22]: < 0% | inhibition at 10 µM [23]: 1.71% | inhibition at 10 µM [24]: < 0% | inhibition at 10 µM [25]: < 0% | inhibition at 10 µM [26]: 4.02% | inhibition at 10 µM [27]: < 0% | inhibition at 10 µM [28]: < 0% | inhibition at 10 µM [29]: 7.25% | inhibition at 10 µM [30]: 6.79% | inhibition at 10 µM [31]: 14.6% | inhibition at 10 µM [32]: 6.92% | inhibition at 10 µM [33]: < 0% | inhibition at 10 µM [34]: < 0% | inhibition at 10 µM [35]: < 0% | inhibition at 10 µM [36]: 9.17% | inhibition at 10 µM [37]: < 0% | inhibition at 10 µM [38]: 7.98% | inhibition at 10 µM [39]: 9.15% | inhibition at 10 µM [40]: < 0% | inhibition at 10 µM [41]: 6.55% | inhibition at 10 µM [42]: 7.18% | inhibition at 10 µM [43]: < 0% | inhibition at 10 µM [44]: 2.73% | inhibition at 10 µM [45]: < 0% | inhibition at 10 µM [46]: < 0% | inhibition at 10 µM [47]: 13.5% | melting point: 228 to 230 °C
